Source: patent US7973033B2, “Multi-cyclic cinnamide derivatives” (Eisai R&D Management Co., Ltd., priority 2006, dated 2011)

What follows are compounds tested on Aβ 42 production (assay: Quantification of Aβ Peptide in Culture of Neurons from Rat Fetus Brain). Conditions: Neuron, 72 h; rat primary neuronal culture (cerebral cortex, embryonic day 18 Wistar rats); medium collected three days after addition of the compound; Aβ ELISA; read-out: Effect of reducing Aβ 42 production IC50.
Assay type: cell-based
Procedure: Quantification of Aβ Peptide in Culture of Neurons from Rat Fetus Brain
(1) Rat Primary Neuronal Culture
Primary neuronal cultures were prepared from the cerebral cortex of embryonic day 18 Wistar rats (Charles River Japan, Yokohama, Japan). Specifically, the embryos were aseptically removed from pregnant rats under ether anesthesia. The brain was isolated from the embryo and immersed in an ice-cold L-15 medium (Invitrogen Corp. Cat #11415-064, Carlsbad, Calif., USA, or SIGMA L1518, for example). The cerebral cortex was collected from the isolated brain under a stereoscopic microscope. The cerebral cortex fragments collected were enzymatically treated in an enzyme solution containing 0.25% trypsin (Invitrogen Corp. Cat #15050-065, Carlsbad, Calif., USA) and 0.01% DNase (Sigma D5025, St. Louis, Mo., USA) at 37° C. for 30 minutes to disperse the cells. Here, the enzymatic reaction was stopped by adding inactivated horse serum to the solution. The enzymatically treated solution was centrifuged at 1,500 rpm for five minutes to remove the supernatant. 5 to 10 ml of a medium was added to the resulting cell mass. Neurobasal medium (Invitrogen Corp. Cat #21103-049, Carlsbad, Calif., USA) supplemented with 2% B27 supplement (Invitrogen Corp. Cat #17504-044, Carlsbad, Calif., USA), 25 μM 2-mercaptoethanol (2-ME, WAKO Cat #139-06861, Osaka, Japan), 0.5 mM L-glutamine (Invitrogen Corp. Cat #25030-081, Carlsbad, Calif., USA), and Antibiotics-Antimycotics (Invitrogen Corp. Cat #15240-062, Carlsbad, Calif., USA) was used as the medium (Neurobasal/B27/2-ME). However, the above Neurobasal medium not supplemented with 2-ME (Neurobasal/B27) was used for the assay. The cells were redispersed by mild pipetting of the cell mass to which the medium was added. The cell dispersion was filtered through a 40-μm nylon mesh (Cell Strainer, Cat #35-2340, Becton Dickinson Labware, Franklin Lakes, N.J., USA) to remove the remaining cell mass, and thus a neuronal cell suspension was obtained. The neuronal cell suspension was diluted with the medium and then plated in a volume of 100 μl/well at an initial cell density of 5×10^5 cells/cm^2 in a 96-well polystyrene culture plate pre-coated with poly-L or D-lysine (Falcon Cat #35-3075, Becton Dickinson Labware, Franklin Lakes, N.J., USA coated with poly-L-lysine using the method shown below, or BIOCOAT™ cell environments Poly-D-lysine cell ware 96-well plate, Cat #35-6461, Becton Dickinson Labware, Franklin Lakes, N.J., USA). Poly-L-lysine coating was carried out as follows. 100 μg/ml of a poly-L-lysine (SIGMA P2636, St. Louis, Mo., USA) solution was aseptically prepared with a 0.15 M borate buffer (pH 8.5). 100 μl/well of the solution was added to the 96-well polystyrene culture plate and incubated at room temperature for one or more hours or at 4° C. overnight or longer. The coated 96-well polystyrene culture plate was washed with sterile water four or more times, and then dried or rinsed with, for example, sterile PBS or medium, and used for cell plating. The plated cells were cultured in the culture plate at 37° C. in 5% CO2-95% air for one day. Then, the total amount of the medium was replaced with a fresh Neurobasal™/B27/2-ME medium, and then the cells were cultured for further three days.
The drug was added to the culture plate on Day 4 of culture as follows. The total amount of the medium was removed from the wells, and 180 μl/well of Neurobasal medium not containing 2-ME and containing 2% B-27 (Neurobasal/B27) was added thereto. A solution of the test compound in dimethyl sulfoxide (hereinafter abbreviated as DMSO) was diluted with Neurobasal/B27 at 10-fold of the final concentration. 20 μl/well of the dilution was added to and sufficiently mixed with the medium. The final DMSO concentration was 1% or less. Only DMSO was added to the control group.
The cells were cultured for three days after addition of the compound, and the total amount of the medium was collected. […]

**Q.** For `COC(=O)c1[nH]c(/C=C/c2ccc(-n3cnc(C)c3)c(OC)c2)nc1-c1ccc(F)cc1` [Example 6, methyl 5-(4-fluorophenyl)-2-{(E)-2-[3-methoxy-4-(4-methyl-1H-imidazol-1-yl)phenyl]vinyl}-1H-imidazole-4-carboxylate], which IC50 is on record?
**A.** 60 nM

**Q.** Which IC50 does the source give for `COC(=O)c1c(-c2ccc(F)cc2)nc2n1CCC/C2=C\c1ccc(-n2cnc(C)c2)c(OC)c1` [Example 22, methyl 2-(4-fluorophenyl)-8-{1-[3-methoxy-4-(4-methyl-1H-imidazol-1-yl)phenyl]-(E)-methylidene}-5,6,7,8-tetrahydroimidazo[1,2-a]pyridine-3-carboxylate] here?
**A.** 170 nM

**Q.** With `COc1cc(/C=C/c2nc3n(n2)CCC[C@]3(O)c2ccc(C)cc2)ccc1-n1cnc(C)c1` (single isomer, unassigned) [Example 155, (−)-2-{(E)-2-[3-methoxy-4-(4-methyl-1H-imidazol-1-yl)phenyl]vinyl}-8-p-tolyl-5,6,7,8-tetrahydro[1,2,4]triazolo[1,5-a]pyridin-8-ol] as the compound, how does the IC50 read?
**A.** 39 nM

**Q.** With `COc1cc(/C=C/c2nc(-c3ccc(F)cc3)c3n2CCNC3=O)ccc1-n1cnc(C)c1` [Example 10, 1-(4-fluorophenyl)-3-{(E)-2-[3-methoxy-4-(4-methyl-1H-imidazol-1-yl)phenyl]vinyl}-6,7-dihydro-5H-imidazo[1,5-a]pyrazin-8-one] as the compound, how does the IC50 read?
**A.** 130 nM

**Q.** With `COc1cc(/C=C/c2nc3n(n2)CCOC3c2ccc(Br)cc2)ccc1-n1cnc(C)c1` (single isomer, unassigned; (-)) [Example 143, (−)-8-(4-bromophenyl)-2-{(E)-2-[3-methoxy-4-(4-methyl-1H-imidazol-1-yl)phenyl]vinyl}-5,6-dihydro-8H-[1,2,4]triazolo[5,1-c][1,4]oxazine] as the compound, how does the IC50 read?
**A.** 22 nM

**Q.** Which IC50 does the source give for `COc1cc(/C=C/c2nc(-c3ccccc3)c[nH]2)ccc1-n1cnc(C)c1` [Example 4, 2-{(E)-2-[3-methoxy-4-(4-methyl-1H-imidazol-1-yl)phenyl]vinyl}-4-phenyl-1H-imidazole] here?
**A.** 76 nM

**Q.** `COc1cc(/C=C/c2nc3n(n2)CCC[C@@H]3c2c(F)cc(F)cc2F)ccc1-n1cnc(C)c1` (single isomer, unassigned) [Example 64, (−)-2-{(E)-2-[3-methoxy-4-(4-methyl-1H-imidazol-1-yl)phenyl]vinyl}-8-(2,4,6-trifluorophenyl)-5,6,7,8-tetrahydro[1,2,4]triazolo[1,5-a]pyridine] was tested. Which IC50 did it give?
**A.** 28 nM

**Q.** With `COC(=O)c1nc2n(c1-c1ccc(F)cc1)CCC/C2=C\c1ccc(-n2cnc(C)c2)c(OC)c1` [Example 21, methyl 3-(4-fluorophenyl)-8-{1-[3-methoxy-4-(4-methyl-1H-imidazol-1-yl)phenyl]-(E)-methylidene}-5,6,7,8-tetrahydroimidazo[1,2-a]pyridine-2-carboxylate] as the compound, how does the IC50 read?
**A.** 41 nM

**Q.** `COc1cc(/C=C/c2nc(-c3ccc(F)cc3)c(CO)[nH]2)ccc1-n1cnc(C)c1` [Example 7, 5-(4-fluorophenyl)-2-{(E)-2-[3-methoxy-4-(4-methyl-1H-imidazol-1-yl)phenyl]vinyl}-(1H-imidazol-4-yl)methanol] was tested. Which IC50 did it give?
**A.** 67 nM

**Q.** With `Cc1cn(-c2ccc(/C=C/c3nc4n(n3)CCCC4c3cc(F)c(F)c(F)c3)cc2F)cn1` (single isomer, unassigned) [Example 62, (−)-2-{(E)-2-[3-fluoro-4-(4-methyl-1H-imidazol-1-yl)phenyl]vinyl}-8-(3,4,5-trifluorophenyl)-5,6,7,8-tetrahydro[1,2,4]triazolo[1,5-a]pyridine] as the compound, how does the IC50 read?
**A.** 23 nM

**Q.** Which IC50 does the source give for `COc1cc(/C=C/c2nc3n(n2)CCO[C@H]3c2ccc(C)cc2)ccc1-n1cnc(C)c1` (single isomer, unassigned) [Example 138, (−)-2-{(E)-2-[3-methoxy-4-(4-methyl-1H-imidazol-1-yl)phenyl]vinyl}-8-p-tolyl-5,6-dihydro-8H-[1,2,4]triazolo[5,1-c][1,4]oxazine] here?
**A.** 47 nM

**Q.** With `COc1cc(/C=C2\CCCn3c(-c4ccc(F)cc4)cnc32)ccc1-n1cnc(C)c1` [Example 18, 3-(4-fluorophenyl)-8-{1-[3-methoxy-4-(4-methyl-1H-imidazol-1-yl)phenyl]-(E)-methylidene}-5,6,7,8-tetrahydroimidazo[1,2-a]pyridine] as the compound, how does the IC50 read?
**A.** 170 nM

**Q.** How did the IC50 turn out when `COc1cc(/C=C/c2nnc(C(C)(C)c3ccccc3)[nH]2)ccc1-n1cnc(C)c1` [Example 49, 3-{(E)-2-[3-methoxy-4-(4-methyl-1H-imidazol-1-yl)phenyl]vinyl}-5-(1-methyl-1-phenylethyl)-4H-[1,2,4]triazole] was run?
**A.** 63 nM

**Q.** With `COc1cc(/C=C/c2nc3n(n2)CCCC3(O)c2cc(F)c(F)c(F)c2)ccc1-n1cnc(C)c1` (single isomer, unassigned) [Example 66, (−)-2-{(E)-2-[3-methoxy-4-(4-methyl-1H-imidazol-1-yl)phenyl]vinyl}-8-(3,4,5-trifluorophenyl)-5,6,7,8-tetrahydro[1,2,4]triazolo[1,5-a]pyridin-8-ol] as the compound, how does the IC50 read?
**A.** 20 nM

**Q.** How did the IC50 turn out when `COc1cc(/C=C/c2nc(-c3ccc(F)cc3)c3n2CCN(C)C3)ccc1-n1cnc(C)c1` [Example 15, 1-(4-fluorophenyl)-3-{(E)-2-[3-methoxy-4-(4-methyl-1H-imidazol-1-yl)phenyl]vinyl}-7-methyl-5,6,7,8-tetrahydroimidazo[1,5-a]pyrazine] was run?
**A.** 180 nM

**Q.** For `COc1cc(/C=C/c2nc3n(n2)CCCC3c2cccc3ccccc23)ccc1-n1cnc(C)c1` (single isomer, unassigned) [Example 130, (+)-2-{(E)-2-[3-methoxy-4-(4-methyl-1H-imidazol-1-yl)phenyl]vinyl}-8-naphthalen-1-yl-5,6,7,8-tetrahydro[1,2,4]triazolo[1,5-a]pyridine], which IC50 is on record?
**A.** 13 nM

**Q.** How did the IC50 turn out when `COc1cc(/C=C/c2nc3n(n2)CCC[C@@H]3c2ccc(Cl)cc2)ccc1-n1cnc(C)c1` (single isomer, unassigned) [Example 149, (−)-8-(4-chlorophenyl)-2-{(E)-2-[3-methoxy-4-(4-methyl-1H-imidazol-1-yl)phenyl]vinyl}-5,6,7,8-tetrahydro[1,2,4]triazolo[1,5-a]pyridine] was run?
**A.** 21 nM

**Q.** Which IC50 does the source give for `COc1cc(/C=C/c2nnc(Cc3ccc(F)cc3)[nH]2)ccc1-n1cnc(C)c1` [Example 17, 3-(4-fluorobenzyl)-5-{(E)-2-[3-methoxy-4-(4-methyl-1H-imidazol-1-yl)phenyl]vinyl}-4H-[1,2,4]triazole] here?
**A.** 58 nM

**Q.** `COc1cc(/C=C/c2nc3n(n2)CCC3c2cc(F)c(F)c(F)c2)ccc1-n1cnc(C)c1` (single isomer, unassigned) [Example 113, (−)-2-{(E)-2-[3-methoxy-4-(4-methyl-1H-imidazol-1-yl)phenyl]vinyl}-7-(3,4,5-trifluorophenyl)-6,7-dihydro-5H-pyrrolo[1,2-b][1,2,4]triazole] was tested. Which IC50 did it give?
**A.** 32 nM

**Q.** `COc1cc(/C=C/c2nc3n(n2)CCC[C@H]3c2ccccc2)ccc1-n1cnc(C)c1` (single isomer, unassigned) [Example 172, (−)-2-{(E)-2-[3-methoxy-4-(4-methyl-1H-imidazol-1-yl)phenyl]vinyl}-8-phenyl-5,6,7,8-tetrahydro[1,2,4]triazolo[1,5-a]pyridine] was tested. Which IC50 did it give?
**A.** 11 nM

**Q.** Which IC50 does the source give for `COc1cc(/C=C/c2nc3n(n2)CCC[C@H]3c2ccccc2Br)ccc1-n1cnc(C)c1` (single isomer, unassigned) [Example 174, (−)-8-(2-bromophenyl)-2-{(E)-2-[3-methoxy-4-(4-methyl-1H-imidazol-1-yl)phenyl]vinyl}-5,6,7,8-tetrahydro[1,2,4]triazolo[1,5-a]pyridine] here?
**A.** 23 nM
